Experimental data reported in patent US20130280388A1, “Solid Food Products and Methods of Their Preservation” (priority 2012, published 2013).

Columns and labels:
Salmonellae [1] = test: Salmonellae log reduction in frozen pot pie filling containing 4-HBITC cooked in a microwave oven (plate count); assay type: cell-based; design: key to Synergistic effect Yes/No: Yes: reduction in microbial counts due to the simultaneous action of 4-HBITC and microwave heating is greater than the sum of the individual reductions in microbial counts due to 4-HBITC and microwave heating, a synergistic effect is considered to be present (YES); No: reduction in microbial counts due to the simultaneous action of 4-HBITC and microwave heating is equal to or less than the sum of the individual reductions in microbial counts due to 4-HBITC and due to microwave heating, a synergistic effect is considered to be absent (NO); details: for Synergistic effect Yes/No: 180 sec
Text: (§1) Pot pie fillings made up of both Salmonellae inoculated particulates and gravy carrying the 4-hydroxybenzyl isothiocyanate (4-HBITC) in white mustard essential oil (WMEO), is used to evaluate the effect of 4-HBITC in a heterogeneous food system. Standing overnight cultures of five strains of Salmonellae are used to inoculate, at two different levels, mixtures of frozen vegetable and chicken particulates containing about 62% chicken, 17% carrot, 15% potato and 2% peas, as described in Example 2, all by weight of the total particulate mixture. The high level contains about 6 log colony forming units (cfu)/gm while the medium level contains about 3 log cfu/gm of Salmonellae. Bags containing the inoculated cultures and the particulates are gently inverted and rolled to ensure uniform coating of the particulates and the inoculated particles are then stored at −28° C. for 24 hours before being mixed with sauce containing white mustard essential oil (WMEO).
(§2) Sauce as made in Example 2 is used as the vehicle for WMEO. From a 2.4% 4-HBITC in WMEO stock solution in peanut oil made as described in Example 1, accurate amounts are weighed out such that 400 g of the pie filling comprising 36% of the particulates and 64% of the gravy will have 750, 562.5 or 250 ppm, 4-HBITC when mixed together. The particulates and the sauce are first put together in a sterile bowl and the WMEO in peanut oil added to the mixture and mixed gently for about 1 minute. The control (0 ppm 4-HBITC samples have only the vegetable oil added to them before mixing. The completed pie fillings are then immediately frozen at −28° C. for 48 hours before the second stage of the experiment.
(§3) To enumerate the accurate Salmonellae count prior to freezing, a sample is removed from each of the mixed pie fillings, including the control, and diluted at a ratio of 1:10 with Butterfields buffer and homogenized using a stomacher. The homogenized and diluted sample is suitably diluted further to obtain the appropriate number of bacterial colonies per plate and plated in triplicate on trypticase soy agar with yeast extract and allowed to stabilize for 30-60 minutes. The plates are then over-laid with xyline-lysine-deoxycholate (XLD) agar to resuscitate and recover injured cells and incubated at 35° C. for 48 hours before counting the colonies.
(§4) In the second stage of the experiment, the frozen pie fillings are cooked in 700 W or 1100 W microwave ovens. During cooking, samples are removed from the pie fillings at 15, 45, 60, 90 120, 180 and 240 seconds. At each of these time points, the surviving microbial counts are enumerated by removing discrete 25 g samples and plating them in the manner described above. To determine the effect of 4-HBITC only, each of the treatments and the control is thawed to room temperature and triplicate samples are used to enumerate the surviving microorganisms as detailed above.
(§5) The microbial reductions resulting from the treatments is attributed to the simultaneous action of microwave heating and 4-HBITC while microbial reductions occurring in the 0 ppm 4-HBITC containing control sample is attributed to microwave heating only. If the reduction in microbial counts due to the simultaneous action of 4-HBITC and microwave heating is greater than the sum of the individual reductions in microbial counts due to 4-HBITC and microwave heating, a synergistic effect is considered to be present (YES). If the reduction in microbial counts due to the simultaneous action of 4-HBITC and microwave heating is equal to or less than the sum of the individual reductions in microbial counts due to 4-HBITC and due to microwave heating, a synergistic effect is considered to be absent (NO).

Salmonellae [2] = test: Salmonellae log reduction in pot pie filling by 4-HBITC only (frozen filling thawed to room temperature, plate count); assay type: cell-based
Text: as §1, §2, §3, §4, §5

[3] = 250 ppm 4-HBITC, inoc. level H, MW power 700 Watts
[4] = 250 ppm 4-HBITC, inoc. level H, MW power 1100 Watts
[5] = 250 ppm 4-HBITC, inoc. level M, MW power 700 Watts
[6] = 250 ppm 4-HBITC, inoc. level M, MW power 1100 Watts
[7] = 562.5 ppm 4-HBITC, inoc. level H, MW power 700 Watts
[8] = 562.5 ppm 4-HBITC, inoc. level H, MW power 1100 Watts
[9] = 562.5 ppm 4-HBITC, inoc. level M, MW power 700 Watts
[10] = 562.5 ppm 4-HBITC, inoc. level M, MW power 1100 Watts
[11] = 750 ppm 4-HBITC, inoc. level H, MW power 700 Watts
[12] = 750 ppm 4-HBITC, inoc. level H, MW power 1100 Watts
[13] = 750 ppm 4-HBITC, inoc. level M, MW power 700 Watts
[14] = 750 ppm 4-HBITC, inoc. level M, MW power 1100 Watts

In the case of `Oc1ccc(CN=C=S)cc1` [4-HBITC, 4-hydroxybenzyl isothiocyanate], the “log reductions (180 sec) due to Simultaneous action of 4-HBITC & heat” value (shortened to “log reductions (180 sec) due … of 4-HBITC & heat”) (Salmonellae [1]; [3]) is reported as 1.11 log, the “Synergistic effect Yes/No” value (Salmonellae [1]; [3]) is reported as “No” and the “log reductions (180 sec) due … of 4-HBITC & heat” value (Salmonellae [1]; [4]) is reported as 1.63 log. The “Synergistic effect Yes/No” value (Salmonellae [1]; [4]) was “Yes”, the “log reductions (180 sec) due … of 4-HBITC & heat” value (Salmonellae [1]; [5]) was 1.42 log and the “Synergistic effect Yes/No” value (Salmonellae [1]; [5]) was “No”. The “log reductions (180 sec) due … of 4-HBITC & heat” value (Salmonellae [1]; [6]) was 1.38 log, the “Synergistic effect Yes/No” value (Salmonellae [1]; [6]) was “No” and the “log reductions (180 sec) due … of 4-HBITC & heat” value (Salmonellae [1]; [7]) was 2.97 log. The “Synergistic effect Yes/No” value (Salmonellae [1]; [7]) was “Yes”, the “log reductions (180 sec) due … of 4-HBITC & heat” value (Salmonellae [1]; [8]) was 5.25 log and the “Synergistic effect Yes/No” value (Salmonellae [1]; [8]) was “Yes”. The “log reductions (180 sec) due … of 4-HBITC & heat” value (Salmonellae [1]; [9]) was 4.38 log, the “Synergistic effect Yes/No” value (Salmonellae [1]; [9]) was “Yes” and the “log reductions (180 sec) due … of 4-HBITC & heat” value (Salmonellae [1]; [10]) was 4.38 log. The “Synergistic effect Yes/No” value (Salmonellae [1]; [10]) was “Yes”, the “log reductions (180 sec) due … of 4-HBITC & heat” value (Salmonellae [1]; [11]) was 5.25 log and the “Synergistic effect Yes/No” value (Salmonellae [1]; [11]) was “Yes”. For the same compound, the “log reductions (180 sec) due … of 4-HBITC & heat” value (Salmonellae [1]; [12]) was 1.56 log, the “Synergistic effect Yes/No” value (Salmonellae [1]; [12]) was “No” and the “log reductions (180 sec) due … of 4-HBITC & heat” value (Salmonellae [1]; [13]) was 4.38 log. For the same compound, the “Synergistic effect Yes/No” value (Salmonellae [1]; [13]) was “Yes”, the “log reductions (180 sec) due … of 4-HBITC & heat” value (Salmonellae [1]; [14]) was 4.38 log and the “Synergistic effect Yes/No” value (Salmonellae [1]; [14]) was “Yes”. For the same compound, the “log reductions (180 sec) due to 4-HBITC only” value (Salmonellae [2]; [3]) was 0.74 log, the “log reductions (180 sec) due to 4-HBITC only” value (Salmonellae [2]; [4]) was 1.05 log and the “log reductions (180 sec) due to 4-HBITC only” value (Salmonellae [2]; [5]) was 1.15 log. For the same compound, the “log reductions (180 sec) due to 4-HBITC only” value (Salmonellae [2]; [6]) was 1.1 log, the “log reductions (180 sec) due to 4-HBITC only” value (Salmonellae [2]; [7]) was 1.59 log and the “log reductions (180 sec) due to 4-HBITC only” value (Salmonellae [2]; [8]) was 1.59 log. For the same compound, the “log reductions (180 sec) due to 4-HBITC only” value (Salmonellae [2]; [9]) was 2.4 log, the “log reductions (180 sec) due to 4-HBITC only” value (Salmonellae [2]; [10]) was 2.4 log and the “log reductions (180 sec) due to 4-HBITC only” value (Salmonellae [2]; [11]) was 2.03 log. The “log reductions (180 sec) due to 4-HBITC only” value (Salmonellae [2]; [12]) was 2.14 log, the “log reductions (180 sec) due to 4-HBITC only” value (Salmonellae [2]; [13]) was 2.4 log and the “log reductions (180 sec) due to 4-HBITC only” value (Salmonellae [2]; [14]) was 2.64 log.
